According to ChEMBL document CHEMBL2390830 (Eur J Med Chem, 2013):
Activity calls are given as the source filed them. No cut-off for these calls is given here.

What was measured:
[1] = biological target: T1, 5-hydroxytryptamine receptor 7 (Homo sapiens, UniProt P34969); assay: Inhibition of human 5-HT7 receptor at 10 nM relative to control
[2] = biological target: T2, 5-hydroxytryptamine receptor 1A (Homo sapiens) (UniProt P08908); assay: Agonist activity at human 5-HT1A receptor transfected in CHO cells assessed as inhibition of forskolin-induced cAMP accumulation at 100 nM relative to control; type: functional, cell-based
T2 sequence (whole entry): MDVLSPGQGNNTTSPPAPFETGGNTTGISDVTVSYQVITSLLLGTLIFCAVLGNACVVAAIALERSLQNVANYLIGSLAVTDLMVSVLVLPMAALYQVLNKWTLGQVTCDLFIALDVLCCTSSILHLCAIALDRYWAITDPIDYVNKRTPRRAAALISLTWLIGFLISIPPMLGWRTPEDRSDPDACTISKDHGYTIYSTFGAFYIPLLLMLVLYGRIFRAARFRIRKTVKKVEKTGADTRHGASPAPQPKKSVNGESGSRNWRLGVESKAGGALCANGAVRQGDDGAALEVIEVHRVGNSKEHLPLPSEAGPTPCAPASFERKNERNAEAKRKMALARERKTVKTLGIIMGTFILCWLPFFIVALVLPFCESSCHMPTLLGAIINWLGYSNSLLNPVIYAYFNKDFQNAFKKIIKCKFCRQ

[3] = biological target: T3, D(3) dopamine receptor (Homo sapiens, UniProt P35462); assay: Inhibition of human dopamine D3 receptor at 10 nM relative to control
T3 sequence (P35462 whole entry): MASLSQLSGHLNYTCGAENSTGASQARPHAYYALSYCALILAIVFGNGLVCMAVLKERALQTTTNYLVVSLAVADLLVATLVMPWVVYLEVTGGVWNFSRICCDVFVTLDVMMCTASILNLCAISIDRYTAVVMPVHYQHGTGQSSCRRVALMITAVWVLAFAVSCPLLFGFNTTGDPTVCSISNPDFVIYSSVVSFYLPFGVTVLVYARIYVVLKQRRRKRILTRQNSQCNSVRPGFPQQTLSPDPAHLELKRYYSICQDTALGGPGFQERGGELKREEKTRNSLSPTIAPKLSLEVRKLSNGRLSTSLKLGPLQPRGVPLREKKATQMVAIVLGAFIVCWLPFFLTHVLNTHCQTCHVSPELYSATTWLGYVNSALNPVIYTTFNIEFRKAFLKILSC

[4] = AUCinfinity in CD1 mouse at 2 mg/kg, iv; type: ADME, organism-based; set-up: time infinity, dose 2 mg/kg, route intravenous; details: plasma
[5] = biological target: T4, D(2) dopamine receptor (Homo sapiens, UniProt P14416); details: HEK293, 10 nM
T4 sequence (P14416 whole entry): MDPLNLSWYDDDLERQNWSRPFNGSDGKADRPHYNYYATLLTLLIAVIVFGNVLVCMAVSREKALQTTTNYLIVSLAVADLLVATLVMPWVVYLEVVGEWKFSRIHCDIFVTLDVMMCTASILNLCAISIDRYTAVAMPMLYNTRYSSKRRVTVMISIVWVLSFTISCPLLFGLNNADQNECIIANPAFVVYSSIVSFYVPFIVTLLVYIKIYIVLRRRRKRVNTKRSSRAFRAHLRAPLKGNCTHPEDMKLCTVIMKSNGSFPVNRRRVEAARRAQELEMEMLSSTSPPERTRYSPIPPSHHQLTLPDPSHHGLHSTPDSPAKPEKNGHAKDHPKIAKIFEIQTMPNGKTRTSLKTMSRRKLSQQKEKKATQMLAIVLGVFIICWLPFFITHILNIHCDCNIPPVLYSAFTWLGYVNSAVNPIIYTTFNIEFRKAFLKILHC

[6] = biological target: T5, 5-hydroxytryptamine receptor 2B (Homo sapiens, UniProt P41595); assay: Inhibition of human 5-HT2B receptor at 100 nM relative to control
T5 sequence (P41595 whole entry): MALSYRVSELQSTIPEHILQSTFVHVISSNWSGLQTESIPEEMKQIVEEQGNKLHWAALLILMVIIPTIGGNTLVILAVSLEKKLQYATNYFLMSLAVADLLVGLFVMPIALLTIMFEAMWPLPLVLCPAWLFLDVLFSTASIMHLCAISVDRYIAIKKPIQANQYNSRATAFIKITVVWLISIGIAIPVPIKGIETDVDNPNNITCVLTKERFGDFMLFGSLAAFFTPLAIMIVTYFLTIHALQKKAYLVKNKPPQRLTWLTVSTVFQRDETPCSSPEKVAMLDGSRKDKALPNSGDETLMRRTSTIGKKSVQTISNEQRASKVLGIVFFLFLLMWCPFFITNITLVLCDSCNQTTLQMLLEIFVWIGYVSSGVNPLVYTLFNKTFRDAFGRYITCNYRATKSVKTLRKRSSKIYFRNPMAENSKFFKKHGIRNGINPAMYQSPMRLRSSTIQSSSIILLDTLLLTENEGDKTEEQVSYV

[7] = biological target: T6, D(4) dopamine receptor (Homo sapiens) (UniProt P21917); assay: Inhibition of dopamine D4 receptor (unknown origin) at 100 nM relative to control
T6 sequence (whole entry): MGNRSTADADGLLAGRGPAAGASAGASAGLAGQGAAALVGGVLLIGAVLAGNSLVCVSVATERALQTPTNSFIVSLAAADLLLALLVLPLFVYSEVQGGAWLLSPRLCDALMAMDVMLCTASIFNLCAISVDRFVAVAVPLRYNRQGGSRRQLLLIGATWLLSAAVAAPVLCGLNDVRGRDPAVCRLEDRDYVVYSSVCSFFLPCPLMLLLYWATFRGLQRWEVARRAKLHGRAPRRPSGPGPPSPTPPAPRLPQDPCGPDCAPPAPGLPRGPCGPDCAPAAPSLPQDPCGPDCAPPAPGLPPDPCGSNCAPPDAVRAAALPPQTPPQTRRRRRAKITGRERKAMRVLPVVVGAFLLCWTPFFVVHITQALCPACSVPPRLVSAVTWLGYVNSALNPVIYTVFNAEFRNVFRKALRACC

[8] = biological target: T7, 5-hydroxytryptamine receptor 1A (Rattus norvegicus, UniProt P19327); assay: Displacement of [3H]8-OH-DPAT from 5-HT1A receptor in Wistar rat cerebral hippocampus membrane after 10 mins; type: tissue-based; details: read-out: Ki(app)
T7 sequence (P19327 whole entry): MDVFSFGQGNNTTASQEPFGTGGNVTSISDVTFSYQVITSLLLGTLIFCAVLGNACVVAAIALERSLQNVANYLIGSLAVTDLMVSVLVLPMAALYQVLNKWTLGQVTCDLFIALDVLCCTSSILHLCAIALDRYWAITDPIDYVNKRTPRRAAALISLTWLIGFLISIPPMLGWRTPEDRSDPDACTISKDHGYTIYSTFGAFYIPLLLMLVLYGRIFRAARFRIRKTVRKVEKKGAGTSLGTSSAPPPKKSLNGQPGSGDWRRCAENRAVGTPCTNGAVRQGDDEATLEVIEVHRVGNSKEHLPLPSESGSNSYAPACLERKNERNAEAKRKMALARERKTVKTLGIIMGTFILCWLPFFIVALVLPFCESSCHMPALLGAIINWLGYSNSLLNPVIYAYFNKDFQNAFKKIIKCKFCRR

[9] = test system: Mus musculus; assay: Toxicity in CD1 mouse assessed as effect on autonomic system up to 80 mg/kg, po measured for 24 hrs by Irwin test; type: organism-based; set-up: dose 80 mg/kg, route oral; details: in vivo
[10] = biological target: T3, D(3) dopamine receptor; assay: Inhibition of human dopamine D3 receptor at 100 nM relative to control
[11] = Cmax in CD1 mouse at 10 mg/kg, po; type: ADME, organism-based; set-up: dose 10 mg/kg, route oral; details: in vivo
[12] = biological target: T1, 5-hydroxytryptamine receptor 7; assay: Inhibition of human 5-HT7 receptor at 100 nM relative to control
[13] = biological target: T1, 5-hydroxytryptamine receptor 7; assay: Inhibition of human 5-HT7 receptor
[14] = biological target: T5, 5-hydroxytryptamine receptor 2B; assay: Inhibition of human 5-HT2B receptor at 10 nM relative to control
[15] = AUCinfinity in CD1 mouse at 10 mg/kg, po; type: ADME, organism-based; set-up: time infinity, dose 10 mg/kg, route oral; details: plasma
[16] = test system: Mus musculus; assay: Toxicity in CD1 mouse assessed as effect on neuromotor tonus up to 80 mg/kg, po measured for 24 hrs by Irwin test; type: organism-based; set-up: dose 80 mg/kg, route oral; details: in vivo
[17] = Half life in CD1 mouse at 10 mg/kg, po; type: ADME, organism-based; set-up: dose 10 mg/kg, route oral; details: in vivo
[18] = biological target: T4, D(2) dopamine receptor; details: HEK293, 100 nM
[19] = Apparent volume of distribution in CD1 mouse at 2 mg/kg, iv; type: ADME, organism-based; set-up: dose 2 mg/kg, route intravenous; details: in vivo, read-out: Vz
[20] = Half life in CD1 mouse at 2 mg/kg, iv; type: ADME, organism-based; set-up: dose 2 mg/kg, route intravenous; details: in vivo
[21] = AUC (0 to t) in CD1 mouse at 2 mg/kg, iv; type: ADME, organism-based; set-up: dose 2 mg/kg, route intravenous; details: plasma
[22] = biological target: T8, D(4) dopamine receptor (Homo sapiens, UniProt P21917); assay: Inhibition of dopamine D4 receptor (unknown origin)
T8 sequence (P21917 whole entry): T6 sequence (whole entry)

[23] = AUC (0 to t) in CD1 mouse at 10 mg/kg, po; type: ADME, organism-based; set-up: dose 10 mg/kg, route oral; details: plasma
[24] = Clearance in CD1 mouse at 2 mg/kg, iv; type: ADME, organism-based; set-up: dose 2 mg/kg, route intravenous; details: in vivo
[25] = test system: Mus musculus; assay: Toxicity in CD1 mouse assessed as effect on central reactivity up to 80 mg/kg, po measured for 24 hrs by Irwin test; type: organism-based; set-up: dose 80 mg/kg, route oral; details: in vivo
[26] = biological target: T4, D(2) dopamine receptor; assay: Inhibition of human recombinant dopamine D2S receptor expressed in HEK293 cells; type: cell-based
[27] = test system: Mus musculus; assay: Toxicity in CD1 mouse assessed as effect on neurovegetative reflexes up to 80 mg/kg, po measured for 24 hrs by Irwin test; type: organism-based; set-up: dose 80 mg/kg, route oral; details: in vivo
[28] = test system: Mus musculus; assay: Toxicity in CD1 mouse assessed as effect on central activity up to 80 mg/kg, po measured for 24 hrs by Irwin test; type: organism-based; set-up: dose 80 mg/kg, route oral; details: in vivo
[29] = biological target: T5, 5-hydroxytryptamine receptor 2B; assay: Inhibition of human 5-HT2B receptor
[30] = Oral bioavailability in CD1 mouse at 10 mg/kg; type: ADME, organism-based; details: in vivo
[31] = biological target: T6, D(4) dopamine receptor (Homo sapiens); assay: Inhibition of dopamine D4 receptor (unknown origin) at 10 nM relative to control
[32] = biological target: T2, 5-hydroxytryptamine receptor 1A (Homo sapiens); assay: Antagonist activity at human 5-HT1A receptor transfected in CHO cells assessed as reversal of 8-OH-DPAT-induced cAMP reduction; type: functional, cell-based
[33] = biological target: T3, D(3) dopamine receptor; assay: Inhibition of human dopamine D3 receptor
[34] = Tmax in CD1 mouse at 10 mg/kg, po; type: ADME, organism-based; set-up: dose 10 mg/kg, route oral; details: in vivo
[35] = biological target: T5, 5-hydroxytryptamine receptor 2B; assay: Binding affinity to human 5-HT2B receptor by radioligand displacement assay

T1 sequence (P34969 whole entry): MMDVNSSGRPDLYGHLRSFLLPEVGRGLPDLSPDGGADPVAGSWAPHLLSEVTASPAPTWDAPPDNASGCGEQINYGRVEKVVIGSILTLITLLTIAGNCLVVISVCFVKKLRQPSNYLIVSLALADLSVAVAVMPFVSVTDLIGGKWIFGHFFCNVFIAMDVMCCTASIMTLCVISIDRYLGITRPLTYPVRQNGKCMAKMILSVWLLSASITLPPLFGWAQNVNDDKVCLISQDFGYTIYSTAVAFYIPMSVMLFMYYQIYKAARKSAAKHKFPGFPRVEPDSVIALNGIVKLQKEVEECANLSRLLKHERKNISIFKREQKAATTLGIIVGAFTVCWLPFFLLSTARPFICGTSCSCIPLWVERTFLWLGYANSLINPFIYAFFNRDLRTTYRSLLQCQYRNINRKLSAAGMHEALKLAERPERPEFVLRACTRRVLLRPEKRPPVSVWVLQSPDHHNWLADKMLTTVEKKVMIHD

Row | Structure (SMILES) | inhibition [1] | inhibition [2] | inhibition [3] | AUC(0-inf) [4] | inhibition [6] | inhibition [7] | Ki [8] | Activity [9] | inhibition [10] | Cmax [11] | inhibition [12] | IC50 [13] | inhibition [14] | AUC(0-inf) [15] | Activity [16] | half-life [17] | inhibition [18] | Vd [19] | half-life [20] | AUC(0-t) [21] | further results
1 | COc1ccccc1N1CCN(CCCCCN2Cc3ccc4ccccc4c3C2=O)CC1 | 18% | 63% | 39% | 210 ng·h/mL | 70% | 60% | 1.6 nM | Non-toxic | 86% | 56 ng/mL | 65% | 62 nM | 28% | 325 ng·h/mL | Non-toxic | 4.7 h | 90% | 17.6 L/kg | 1.3 h | 207 ng·h/mL | inhibition [5]: 74%; IC50 [22]: 65 nM; AUC(0-t) [23]: 212 ng·h/mL; clearance [24]: 159 mL/min/kg; Activity [25]: Non-toxic; IC50 [26]: 3.5 nM; Activity [27]: Non-toxic; Activity [28]: Non-toxic; IC50 [29]: 43 nM; bioavailability [30]: 20%; inhibition [31]: 13%; Activity [32]: inactive; IC50 [33]: 24 nM; Tmax [34]: 0.3 h
2 | COc1ccccc1N1CCN(CCCCCN2Cc3c(Cl)nc4ccccc4c3C2=O)CC1 | 24% | 60% | 38% | 76 ng·h/mL | 65% | 28% | 1.7 nM | Non-toxic | 74% | 35 ng/mL | 42% | > 100 nM | 18% | 239 ng·h/mL | Non-toxic | 4.5 h | 26% | 58.7 L/kg | 1.5 h | 70 ng·h/mL | IC50 [22]: > 100 nM; AUC(0-t) [23]: 157 ng·h/mL; clearance [24]: 440 mL/min/kg; Activity [25]: Non-toxic; IC50 [26]: > 100 nM; Activity [27]: Non-toxic; Activity [28]: Non-toxic; IC50 [29]: 63 nM; bioavailability [30]: 45%; inhibition [31]: 10%; Activity [32]: inactive; IC50 [33]: 31 nM; Tmax [34]: 1 h
3 | COc1cc(CC(C)N)c(OC)cc1I (racemic) |  |  |  |  |  |  |  |  |  |  |  |  |  |  |  |  |  |  |  |  | IC50 [35]: 4 nM
